Where “and” joins values, the source holds several entries; their conditions need not be identical. Equal entries are not always repeated. Where two headings read alike, the source gives them in different places.
Test system: IL-2 secretion from primary mouse splenocytes
Assay: Secreted IL-2 ELISA, stimulated primary splenocytes
Type: cell-based
Settings: Suppl Fig. 4B; for IL-2 protein level (% of control) / activity at 5 µM: 5 uM; for activity at 1 µM / activity at 5 µM: Mus musculus, Splenocyte, read-out: IL-2 protein level (% of control)

How did the “IL-2 protein level (% of control)” value (CD3/CD28 treated) turn out when `CN1CCCC(CN2c3ccccc3Sc3ccccc32)C1` (stereo not drawn) [Mepazine, mepazine, reference compound] was run?
The value was 22.2086 % of control and 29.3738 % of control.

What about the activity at 1 µM (CD3/CD28 treated) of the same compound?
Its activity at 1 µM is 82.7%.

What about the activity at 5 µM (CD3/CD28 treated) of the same compound?
Its activity at 5 µM is 15.6%.

What about the activity at 1 µM (PMA/Iono treated) of the same compound?
The activity at 1 µM was 83.3%.

And the activity at 5 µM (PMA/Iono treated)?
Its activity at 5 µM is 22.3%.

What about the “IL-2 protein level (% of control)” value (PMA/Iono treated) of the same compound?
The value was 17.095 % of control and 28.7342 % of control.
